Experimental data as given in publication PMC4519239 (Bioorganic & medicinal chemistry, 2013).
Read-outs that look alike come from different tables or passages of the source.

Legend:
[1] = target: α4β2* nAChR (Rattus norvegicus, UniProt P09483+P12390); experiment: Competition binding assay using
[2] = target: α7*; conditions: read-out: α7* Ki, cited from earlier work
[3] = target: α3β4*; conditions: read-out: α3β4* Ki, cited from earlier work
[4] = target: α4β2*; conditions: read-out: α4β2* Ki, cited from earlier work
[5] = target: α7 nAChR (Homo sapiens, UniProt P36544); experiment: Two-electrode voltage clamp, nAChRs expressed in Xenopus oocytes; format: cell-based; conditions: 1 or 10 µM, relative to ACh control; co-applied at 1 µM with ACh
[6] = target: (α1)2β1γδ; conditions: read-out: (α1)2β1γδ Ki, cited from earlier work
[7] = target: (α1)2β1γδ nAChR (Tetronarce californica, UniProt P02710+P02714+P02718); experiment: Competition binding assay using; parameters: species or system Torpedo californica
[8] = target: α3β4 nAChR (Homo sapiens, UniProt P30926+P32297); experiment: Two-electrode voltage clamp, nAChRs expressed in Xenopus oocytes; format: cell-based; conditions: 1 or 10 µM, relative to ACh control; co-applied at 1 µM with ACh
[9] = target: muscle nAChR α1β1εδ (Mus musculus, UniProt P02716+P04756+P20782); experiment: as above; format: cell-based; conditions: 1 or 10 µM, relative to ACh control; co-applied at 1 µM with ACh

## CC(=O)N1C[C@@H]2C[C@@H](CN(C)C2)C1 [Compound 70, 1-((1R,5S)-7-methyl-3,7-diazabicyclo[3.3.1]nonan-3-yl)ethanone]
[1]; compared to acetylbispidine 8
  fold lower affinity for the α4β2* subtype: 35 fold

## O=C1CCCC2[C@H]3CNC[C@H](C3)CN12 (some centres unmarked) [Compound 6, tetrahydrocytisine]
[2]; ref [44]
  Ki: 2000 nM
[3]; ref [44]
  Ki: 385 ± 6 nM
[4]; ref [44]
  Ki: 17 nM

## CC(=O)N1C[C@@H]2CNC[C@@H](C2)C1.O=C(O)/C=C/C(=O)O [Compound 8, (1R, 5S)-1-(3,7-diazabicyclo[3.3.1]nonan-3-yl)ethanone]
[5]
  functional profile at α7: agonism

## O=C(O)/C=C/C(=O)O.O=C(c1cccc(Cl)c1)N1C[C@@H]2CNC[C@@H](C2)C1 [Compound 22, (1R,5S)-3,7-diazabicyclo[3.3.1]nonan-3-yl(3-chlorophenyl)methanone]
[1]
  affinity for the α4β2* subtype in words: inactive

## CN(C)C(=O)N1C[C@@H]2CNC[C@@H](C2)C1.O=C(O)/C=C/C(=O)O [Compound 41, (1R,5S)-N,N-dimethyl-3,7-diazabicyclo[3.3.1]nonane-3-carboxamide]
[1]; compared to carboxamide analog 17
  fold lower affinity for the α4β2* nAChR: 10 fold

## CCN(CC)C(=O)N1C[C@@H]2CNC[C@@H](C2)C1.O=C(O)/C=C/C(=O)O [Compound 42, (1R,5S)-N,N-diethyl-3,7-diazabicyclo[3.3.1]nonane-3-carboxamide]
[1]
  affinity for the α4β2* subtype in words: lost its affinity

## CN1C[C@@H]2C[C@H](C1)C1CCCC(=O)N1C2 (some centres unmarked) [Compound 7]
[2]; ref [44]
  Ki: 10000 nM
[3]; ref [44]
  Ki: 2450 nM
[6]; ref [44]
  Ki: > 50 µM
[4]; ref [44]
  Ki: 34 nM

## O=C(N1CCC(Cc2ccccc2)CC1)N1C[C@@H]2CNC[C@@H](C2)C1 [Compound 69, (1R,5S)-3,7-diazabicyclo[3.3.1]nonan-3-yl(4-benzylpiperidin-1-yl)methanone]
[7]
  Ki: > 5 µM

## O=c1c(-c2cccnc2)ccc2n1C[C@@H]1CNC[C@H]2C1 [4 (3PC), 3-(pyridine-3-yl)-cytisine]
[6]; ref [41],[44],[45]
  Ki: > 5 µM

## Cl.O=S(=O)(c1ccc(Br)cc1)N1C[C@@H]2CNC[C@@H](C2)C1 [Compound 39, (1R,5S)-3-(4-bromophenylsulfonyl)-3,7-diazabicyclo[3.3.1]nonane]
[1]
  affinity for the α4β2* subtype in words: nonactive

## c1cnc2cc3c(cc2n1)[C@@H]1CNC[C@H]3C1 [5 (Var), varenicline]
[2]; ref [42]
  Ki: 322 nM
[3]; ref [42]
  Ki: 240 nM
[6]; ref [42]
  Ki: 3.54 µM
[4]; ref [42]
  Ki: 0.06 nM

## O=C(CC1CCCC1)N1C[C@@H]2CNC[C@@H](C2)C1.O=C(O)/C=C/C(=O)O [Compound 55, 1-((1R,5S)-3,7-diazabicyclo[3.3.1]nonan-3-yl)-2-cyclopentylethanone]
[8]
  functional profile at α3β4*: essentially no effect
[9]
  functional profile at muscle type: apparent antagonistic activity
[5]
  functional profile at α7: apparent antagonistic activity

## C1NCC2CNCC1C2 [bispidine, 3,7-diazabicyclo[3.3.1]nonane]
[5]
  functional profile at α7: weak activation

## O=C(N1CCCC1)N1C[C@@H]2CNC[C@@H](C2)C1.O=C(O)/C=C/C(=O)O [Compound 67, (1R,5S)-3,7-diazabicyclo[3.3.1]nonan-3-yl(pyrrodin-1-yl)methanone]
[7]
  Ki: > 10 µM
[1]
  affinity for the α4β2* subtype in words: not active

## CS(=O)(=O)N1C[C@@H]2CNC[C@@H](C2)C1 [Compound 34, (1R,5S)-3-(methylsulfonyl)-3,7-diazabicyclo[3.3.1]nonane]
[7]
  Ki: > 10 µM

## O=C(C1CCCC1)N1C[C@@H]2CNC[C@@H](C2)C1.O=C(O)/C=C/C(=O)O [Compound 43, (1R,5S)-3,7-diazabicyclo[3.3.1]nonan-3-yl(cyclopentyl)methanone]
[8]
  functional profile at α3β4*: Possible agonistic effects
[5]
  functional profile at α7: agonism

## CCCC(=O)N1C[C@@H]2CNC[C@@H](C2)C1.O=C(O)/C=C/C(=O)O [Compound 16, (1R,5S)-1-(3,7-diazabicyclo[3.3.1]nonan-3-yl)butan-1-one]
[8]
  functional profile at α3β4*: Possible agonistic effects
[5]
  functional profile at α7: agonism
[1]; α4β2* versus α3β4*
  fold higher affinity for the α4β2* receptor: about 74 fold

## CCC(=O)N1C[C@@H]2CNC[C@@H](C2)C1.O=C(O)/C=C/C(=O)O [Compound 15, (1R,5S)-1-(3,7-diazabicyclo[3.3.1]nonan-3-yl)propan-1-one]
[8]
  functional profile at α3β4*: Possible agonistic effects

## O=c1cccc2n1C[C@@H]1CNC[C@H]2C1 [3 (Cyt), cytisine]
[4]; ref [41],[44],[45]
  Ki: 0.122 nM

## O=C(O)/C=C/C(=O)O.O=C(c1cccc([N+](=O)[O-])c1)N1C[C@@H]2CNC[C@@H](C2)C1 [Compound 23, (1R,5S)-3,7-diazabicyclo[3.3.1]nonan-3-yl(3-nitrophenyl)methanone]
[1]
  affinity for the α4β2* subtype in words: inactive

## O=[N+]([O-])c1ccc(S(=O)(=O)N2C[C@@H]3CNC[C@@H](C3)C2)cc1 [Compound 40, (1R,5S)-3-(4-nitrophenylsulfonyl)-3,7-diazabicyclo[3.3.1]nonane]
[7]
  Ki: > 10 µM
